This note sets out measurements from patent US7166622B2, “Substituted phenylsulfonamide inhibitors of beta amyloid production” (Wyeth, priority 2002, dated 2007).

One data set concerns beta amyloid production. In words: Repressor Release Assay (RRA). It counts as cell-based. The note with it: for fold induction at 10 µg/mL / fold induction at 20 µg/mL: read-out: APPI Fold Increase; for APPI % of Example #98: relative to Example 98. The protocol:
CHO-K1 cells were cultured in whole DMEM media (DMEM—High Glucose with 10% fetal bovine serum, 1% Non-essential Amino Acids, and 1% Penicillin-Streptomycin) at 37° C. with 5% CO2. Two million cells were plated into 10-cm dishes 24 hrs prior to transfection.
Transient transfections were completed as recommended by Gibco BRL using their Lipofectamine Plus system. First, 6 μg of pRSVO-luc and 6 μg of APP-lacI construct DNA were added to 460 μL Opti-Mem transfection media and incubated with 30 μL Plus reagent for 15 minutes. Then, a lipid mixture of 40 μL Lipofectamine reagent and 460 μL Opti-Mem transfection media was incubated with the DNA-Plus reagent mixture for 15 minutes. During the DNA-lipid incubation, the CHO-K1 cells were washed once and covered in 5.0 mL DMEM media without Penicillin-Streptomycin. The DNA-lipid preparation was then layered onto these cells and incubated at 37° C. overnight.
[…] transfected cells per well (100 μL total volume) were plated into sterile, opaque Packard 96-well Culture-Plates in clear DMEM whole media (DMEM—without phenol red) and incubated at 37° C. with 5% CO2 for 3-5 hours.
Compounds were diluted using two different protocols; one protocol was used for compounds supplied neat (weighed powder in vial) and the other protocol was used for compounds supplied in solution (20 mM in DMSO in 96-well plates). For both protocols, 25 mM Hepes and 25 mM Hepes/1% DMSO were prepared fresh to be used as diluent. The Hepes/DMSO was used as the diluent control on all experimental plates.
The following table depicts the steps for compound dilution (please note that the last step was the addition of compound to cells/media in tissue culture plate).
Because some compounds were present in 96-well format at 20 mM, the following represents the protocol for their dilution (note that an average molecular weight of these compounds was used to calculate these dilutions and as above, the last step was the addition of compound to cells/media in tissue culture plate).
Once the compounds were diluted, they were applied in duplicate on cells in tissue culture plates (prepared above). Cells were incubated with compound at 37° C. with 5% CO2 for an additional 36-48 hours.
Luciferase assays (LucLite reagent, Packard) were performed and were read on a Packard TopCount instrument. Media was removed from each 96-well plate and replaced with 100 μL PBS per well (with Mg^2+ and Ca^2+). An equal volume (100 μL) of the LucLite lysis/substrate buffer was added to each well and the plates were sealed and mixed in the dark on a rotary shaker for 15-30 minutes at room temperature. Luciferase readings were then taken on the TopCount instrument. Measurements were expressed as relative light units (RLU) and are calculated and analyzed in MS Excel as follows: […]

The subject of a further data set is CHO-K1 cells. The data set can be described thus: Toxicity in RRA (loss of luciferase signal). To be noted: toxicity = loss of signal (<0.75 fold increase).
The mark [1] stands for this setting: Conc 10 μg/ml, luciferase activity over diluent control.
Setting [2] is: Conc 20 μg/ml, luciferase activity over diluent control.

Each structure is given as a SMILES string. Where two headings read alike, the source gives them in different places.

Method for CHO-K1 cells: The beta amyloid inhibitory activity of the compounds of the present invention was determined using the Repressor Release Assay (RRA).
“Fold Increase” refers to the amount of luciferase activity (measured in relative light units) over diluent control. “SEM” refers to the standard error of the mean for fold increase.

With `CC[C@H](C)[C@H](NS(=O)(=O)c1ccc(F)cc1)C(O)C1CCCC1` (stereo partly drawn) [Example 127, N-{(1S,2S)-1-[cyclopentyl(hydroxy)methyl]-2-methylbutyl}-4-fluorobenzenesulfonamide], the fold induction at 10 µg/mL with beta amyloid production (setting [1]) was 2.97. For the same molecule, the “(%)APPI Toxicity” value with CHO-K1 cells (Conc 10 μg/ml) is 1 (1=non-toxic).

As for `CC[C@H](C)[C@H](NS(=O)(=O)c1ccccc1F)C(O)c1ccc(Cl)cc1` (stereo partly drawn) [Example 208, N-{(1S,2S)-1-[(4-chlorophenyl) (hydroxy)methyl]-2-methylbutyl}-2-fluorobenzenesulfonamide], in the data set with beta amyloid production (setting [1]), the fold induction at 10 µg/mL was determined as 2.01. For the same molecule, in the data set with CHO-K1 cells (Conc 10 μg/ml), the “(%)APPI Toxicity” value is recorded as 1 (1=non-toxic).

For `CCCCCC(O)[C@@H](NS(=O)(=O)c1ccc(F)cc1)[C@@H](C)CC` (stereo partly drawn) [Example 129, 4-fluoro-N-{(1S)-2-hydroxy-1-[(1S)-1-methylpropyl]heptyl}benzenesulfonamide], the “(%)APPI Toxicity” value with CHO-K1 cells (Conc 10 μg/ml) is listed as 1 (1=non-toxic).

For the molecule `CCCCCC(O)[C@@H](NS(=O)(=O)c1ccccc1F)[C@@H](C)CC` (stereo partly drawn) [Example 204, 2-fluoro-N-{(1S)-2-hydroxy-1-[(1S)-1-methylpropyl]heptyl}benzenesulfonamide], the fold induction at 10 µg/mL with beta amyloid production (setting [1]) stood at 3.73. In the data set with CHO-K1 cells (Conc 10 μg/ml), the “(%)APPI Toxicity” value was 1 (1=non-toxic).

With `C=CCC(O)(CC=C)[C@@H](NS(=O)(=O)c1cccc(Cl)c1)[C@@H](C)CC` [Example 254, N-{(1S)-2-allyl-2-hydroxy-1-[(1S)-1-methylpropyl]-4-pentenyl}-3-chloro benzenesulfonamide], in the data set on beta amyloid production (setting [1]), the “APPI Fold Increase” value is 1.93 fold. The “APPI % of Example #98” value with beta amyloid production (Conc 10 μg/ml) was 71.92%. Moreover, the “(%)APPI Toxicity” value in the data set on CHO-K1 cells (Conc 10 μg/ml) is reported as 1 (1=non-toxic).

For `C/C=C(\C)C(O)(/C(C)=C/C)[C@@H](NS(=O)(=O)c1ccc(Cl)cc1)[C@@H](C)CC` (stereo partly drawn) [Example 232, 4-chloro-N-{(1S,3E)-2-hydroxy-3-methyl-2-[(1E)-1-methyl-1-propenyl]-1-[(1S)-1-methylpropyl]-3-pentenyl}benzenesulfonamide], in the data set with beta amyloid production (setting [1]), the fold induction at 10 µg/mL is 1.94. For the same molecule, the fold induction at 20 µg/mL in the data set with beta amyloid production (setting [2]) came to 4.2. Also, the “(%)APPI Toxicity” value in the data set with CHO-K1 cells (Conc 10 μg/ml) and in the data set on CHO-K1 cells (Conc 20 μg/ml) was 1 (1=non-toxic) throughout.

`CC[C@H](C)[C@H](NS(=O)(=O)c1ccc(Cl)cc1)C(O)c1cccc2ccccc12` (stereo partly drawn) [Example 184, 4-chloro-N-{(1S,2S)-1-[hydroxy(1-naphthyl)methyl]-2-methylbutyl}benzenesulfonamide]: in the data set with beta amyloid production (setting [1]), the fold induction at 10 µg/mL worked out at 1.7. Besides, the “(%)APPI Toxicity” value in the data set with CHO-K1 cells (Conc 10 μg/ml) is recorded as 1 (1=non-toxic).

For `CC(c1ccccc1)C(CO)NS(=O)(=O)c1ccc(Cl)cc1` (stereo not shown) [Example 38, 4-chloro-N-[1-(hydroxymethyl)-2-phenylpropyl]benzenesulfonamide], in the data set with beta amyloid production (setting [2]), the fold induction at 20 µg/mL stood at 3.3. Also, in the data set on CHO-K1 cells (Conc 20 μg/ml), the “(%)APPI Toxicity” value is 1 (1=non-toxic).

With `CC[C@H](C)[C@@H](CO)N(CC#Cc1ccccc1)S(=O)(=O)c1ccc(Cl)cc1` [Example 48, 4-chloro-N-[(1S,2S)-1-(hydroxymethyl)-2-methylbutyl]-N-(3-phenylprop-2-ynyl) benzenesulfonamide], the “APPI Fold Increase” value with beta amyloid production (setting [2]) was found to be 3.1 fold. In the data set on beta amyloid production (Conc 20 μg/ml), the “APPI % of Example #98” value came to 116.6%. Besides, the “(%)APPI Toxicity” value in the data set on CHO-K1 cells (Conc 20 μg/ml) is recorded as 1 (1=non-toxic).

As for `C=CCC(O)(CC=C)[C@@H](NS(=O)(=O)c1ccc(F)cc1)[C@@H](C)CC` [Example 241, N-{(1S)-2-allyl-2-hydroxy-1-[(1S)-1-methylpropyl]-4-pentenyl}-4-fluoro benzenesulfonamide], the “APPI Fold Increase” value with beta amyloid production (setting [1]) worked out at 1.58 fold. Moreover, the “APPI % of Example #98” value in the data set on beta amyloid production (Conc 10 μg/ml) turned out to be 72.82%. The “(%)APPI Toxicity” value in the data set with CHO-K1 cells (Conc 10 μg/ml) is 1 (1=non-toxic).

As to `CC[C@@H](c1ccco1)[C@@H](CO)NS(=O)(=O)c1ccc(Br)cc1` [Example 85, 4-bromo-N-[(1S,2R)-2-(2-furyl)-1-(hydroxymethyl)butyl]benzenesulfonamide], the fold induction at 20 µg/mL with beta amyloid production (Conc 20 μg/ml, luciferase activity (RLU) over diluent control) turned out to be 3.4. Moreover, the “(%)APPI Toxicity” value in the data set on CHO-K1 cells (Conc 20 μg/ml, 1=non-toxic, 0=toxic) was 1 (1=non-toxic).

With `CC[C@H](C)[C@H](NS(=O)(=O)c1cccc(Cl)c1)C(C)O` (stereo partly drawn) [Example 185, 3-chloro-N-[(1S,2S)-1-(1-hydroxyethyl)-2-methylbutyl]benzenesulfonamide], the fold induction at 10 µg/mL in the data set on beta amyloid production (setting [1]) turned out to be 1.51. The “(%)APPI Toxicity” value with CHO-K1 cells (Conc 10 μg/ml) is listed as 1 (1=non-toxic).

As to `CC[C@H](C)[C@H](NS(=O)(=O)c1ccccc1F)C(O)C1CCCC1` (stereo partly shown) [Example 202], in the data set on beta amyloid production (setting [1]), the “APPI Fold Increase” value came out at 1.62 fold. Moreover, the “APPI % of Example #98” value in the data set on beta amyloid production (Conc 10 μg/ml) is 55.79%.

Turning to `CC[C@H](C)[C@H](NS(=O)(=O)c1ccc(F)cc1)C(O)(c1cccc2ccccc12)c1cccc2ccccc12` [Example 248, 4-fluoro-N-((1S,2S)-1-{hydroxy[di(1-naphthyl)]methyl}-2-methylbutyl)benzenesulfonamide], in the data set with CHO-K1 cells (Conc 10 μg/ml), the “(%)APPI Toxicity” value was 1 (1=non-toxic).

For `CCCCCCC(O)[C@@H](NS(=O)(=O)c1ccc(F)cc1)[C@@H](C)CC` (stereo partly drawn) [Example 128, 4-fluoro-N-{(1S)-2-hydroxy-1-[(1S)-1-methylpropyl]octyl}benzenesulfonamide], the “(%)APPI Toxicity” value in the data set on CHO-K1 cells (Conc 10 μg/ml) is on record as 1 (1=non-toxic).

Consider `CC[C@H](C)[C@H](NS(=O)(=O)c1ccc(Cl)cc1)C(O)C1CCCC1` (stereo partly drawn) [Example 166, 4-chloro-N-{(1S,2S)-1-[cyclopentyl(hydroxy)methyl]-2-methylbutyl}benzenesulfonamide], for which the “(%)APPI Toxicity” value with CHO-K1 cells (Conc 10 μg/ml) is 1 (1=non-toxic).

Take `CC[C@H](C)[C@H](NS(=O)(=O)c1ccc(Br)cc1)C(O)CC(C)C` (stereo partly drawn) [Example 150, 4-bromo-N-{(S)-2-hydroxy-4-methyl-1-[(1S)-1-methylpropyl]pentyl}benzenesulfonamide]: the “(%)APPI Toxicity” value in the data set on CHO-K1 cells (Conc 10 μg/ml) is 1 (1=non-toxic).

`CCCCCC(O)(CCCCC)[C@@H](NS(=O)(=O)c1ccc(Br)cc1)[C@@H](C)CC` [Example 212, 4-bromo-N-{(1S)-2-hydroxy-1-[(1S)-1-methylpropyl]-2-pentylheptyl}benzenesulfonamide]: the “(%)APPI Toxicity” value in the data set with CHO-K1 cells (Conc 10 μg/ml) was 1 (1=non-toxic).

As for `CC[C@H](C)[C@@H](CO)N(CCNC(=O)OC(C)(C)C)S(=O)(=O)c1ccc(Cl)cc1` [Example 42, tert-butyl 2-{([4-chlorophenyl)sulfonyl][(1S,2S)-1-(hydroxymethyl)-2-methylbutyl]amino} ethyl carbamate], the “APPI Fold Increase” value in the data set with beta amyloid production (setting [2]) is listed as 1.9 fold. Besides, the “APPI % of Example #98” value in the data set on beta amyloid production (Conc 20 μg/ml) was 71.7%.

For `C=CCC(O)[C@@H](NS(=O)(=O)c1ccc(Cl)cc1)[C@@H](C)CC` (stereo partly drawn) [Example 175, 4-chloro-N-{(1S)-2-hydroxy-1-[(1S)-1-methylpropyl]-4-pentenyl}benzenesulfonamide], in the data set with CHO-K1 cells (Conc 10 μg/ml), the “(%)APPI Toxicity” value is 1 (1=non-toxic).

For `C[C@H](NC(=O)Cc1cc(F)cc(F)c1)C(=O)N[C@H](C(=O)OC(C)(C)C)c1ccccc1` [DAPT, reference compound], the “fold increase in luciferase activity” value with beta amyloid production (at 10 μg/mL, luciferase activity over diluent control, transfected CHO-K1 cells) is listed as 6.0-28.1 fold increase.

Regarding `CC[C@H](C)[C@H](NS(=O)(=O)c1ccc(Br)cc1)C(O)(CC(C)C)CC(C)C` [Example 214, 4-bromo-N-{(1S)-2-hydroxy-2-isobutyl-4-methyl-1-[(1S)-1-methylpropyl]pentyl} benzenesulfonamide], the “(%)APPI Toxicity” value in the data set on CHO-K1 cells (Conc 10 μg/ml) is recorded as 1 (1=non-toxic).

In the case of `CCCCCC(O)[C@@H](NS(=O)(=O)c1ccc(Cl)cc1)[C@@H](C)CC` (stereo partly drawn) [Example 168, 4-chloro-N-{(1S)-2-hydroxy-1-[(1S)-1-methylpropyl]heptyl}benzenesulfonamide], the “(%)APPI Toxicity” value with CHO-K1 cells (Conc 10 μg/ml) is 1 (1=non-toxic).

For `CCCCCCC(O)(CCCCCC)[C@@H](NS(=O)(=O)c1ccc(F)cc1)[C@@H](C)CC` [Example 236, 4-fluoro-N-{(1S)-2-hexyl-2-hydroxy-1-[(1S)-1-methylpropyl]octyl}benzenesulfonamide], the “(%)APPI Toxicity” value in the data set on CHO-K1 cells (Conc 10 μg/ml) is listed as 1 (1=non-toxic).

In the case of `CC[C@H](C)[C@H](NS(=O)(=O)c1ccc(Br)cc1)C(O)C(C)(C)C` (stereo partly drawn) [Example 149, 4-bromo-N-{(1S)-2-hydroxy-3,3-dimethyl-1-[(1S)-1-methylpropyl]butyl}benzenesulfonamide], the “(%)APPI Toxicity” value with CHO-K1 cells (Conc 10 μg/ml) is on record as 1 (1=non-toxic).
